Assay results taken from publication doi:10.1101/2022.01.25.477728v2 (biorxiv, 2022).

Biological target: T1, TcBDF2 / TcBD2 (TcBDF2HA) (Trypanosoma cruzi, UniProt A0A2V2V5V1)
T1 sequence (A0A2V2V5V1 2-119): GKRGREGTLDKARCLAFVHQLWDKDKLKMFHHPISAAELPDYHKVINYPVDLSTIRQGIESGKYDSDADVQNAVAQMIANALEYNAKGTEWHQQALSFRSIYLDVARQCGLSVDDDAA
Experiment: intrinsic tryptophan fluorescence quenching
Format: binding

Kd [µM] | Compound
~14 | CCOC(=O)Nc1cc(-c2ccc(C)c(NS(C)(=O)=O)c2)nn2c(C)nnc12 [Bromosporine]
> 150 | COc1cc(OC)c2c(=O)[nH]c(-c3cc(C)c(OCCO)c(C)c3)nc2c1 [RVX-208]
~14 | COc1cc2c(cc1-c1c(C)noc1C)ncc1[nH]c(=O)n([C@H](C)c3ccccn3)c12 [iBET-151]
